Laboratory results published in PMC6979384, “Characterization of the plant homeodomain (PHD) reader family for their histone tail interactions” (Epigenetics & Chromatin, 2020).
Values joined by “and” are separate entries in the source; they are usually repeats but may differ in a detail not shown here. Identical values can stand only once.

Columns and labels:
Test in all cases: Histone peptide microarray
Format in all cases: binding, human
[1] = tested on: AIRE (PP); details: AIRE (PP), GST-tagged; arrays performed twice, n of 4
Method in brief: (§1)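 Readout is array binding signal, reported as the mean and standard deviation over four replicates. Each purified GST-fused PHD domain was incubated at 0.5 μM with a library of 293 modified histone peptides.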

[2] = tested on: BAZ2B; details: BAZ2B, GST-tagged; arrays performed twice, n of 4
Method in brief: as §1

[3] = tested on: BPTF (PB); details: BPTF (PB), GST-tagged; arrays performed twice, n of 4
Method in brief: as §1

[4] = tested on: CHD4 (PPCC); details: CHD4 (PPCC), GST-tagged; arrays performed twice, n of 4
Method in brief: as §1

[5] = tested on: CHD5 (PCC); details: CHD5 (PCC), GST-tagged; arrays performed twice, n of 4
Method in brief: as §1

[6] = tested on: CHD5 (PPCC); details: CHD5 (PPCC), GST-tagged; arrays performed twice, n of 4
Method in brief: as §1

[7] = tested on: DIDO1; details: DIDO1, GST-tagged; arrays performed twice, n of 4
Method in brief: as §1

[8] = tested on: DPF2 (PPC2W2); details: DPF2 (PPC2W2), GST-tagged; arrays performed twice, n of 4
Method in brief: as §1

[9] = tested on: ING1; details: ING1, GST-tagged; arrays performed twice, n of 4
Method in brief: as §1

[10] = tested on: ING2; details: ING2, GST-tagged; arrays performed twice, n of 4
Method in brief: as §1

[11] = tested on: ING3; details: ING3, GST-tagged; arrays performed twice, n of 4
Method in brief: as §1

[12] = tested on: ING4; details: ING4, GST-tagged; arrays performed twice, n of 4
Method in brief: as §1

[13] = tested on: ING5; details: ING5, GST-tagged; arrays performed twice, n of 4
Method in brief: as §1

[14] = tested on: KDM4C (TTP); details: KDM4C (TTP), GST-tagged; arrays performed twice, n of 4
Method in brief: as §1

[15] = tested on: KDM5A (1); details: KDM5A (1), GST-tagged; arrays performed twice, n of 4
Method in brief: as §1

[16] = tested on: KDM5A (3); details: KDM5A (3), GST-tagged; arrays performed twice, n of 4
Method in brief: as §1

[17] = tested on: KDM5B (1); details: KDM5B (1), GST-tagged; arrays performed twice, n of 4
Method in brief: as §1

[18] = tested on: KDM5B (3); details: KDM5B (3), GST-tagged; arrays performed twice, n of 4
Method in brief: as §1

[19] = tested on: KDM7A; details: KDM7A, GST-tagged; arrays performed twice, n of 4
Method in brief: as §1

[20] = tested on: MLL5; details: MLL5, GST-tagged; arrays performed twice, n of 4
Method in brief: as §1

[21] = tested on: MORC3 (CW); details: MORC3 (CW), GST-tagged; arrays performed twice, n of 4
Method in brief: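 Steps: express and purify GST-tagged PHD reader; incubate 0.5 μM protein on a peptide microarray (293 histone peptides, single or combined PTMs) following an optimized protocol; average signal across 4 replicates.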

[22] = tested on: PHF13; details: PHF13, GST-tagged; arrays performed twice, n of 4
Method in brief: as §1

[23] = tested on: PHF21A; details: PHF21A, GST-tagged; arrays performed twice, n of 4
Method in brief: as §1

[24] = tested on: PHF23; details: PHF23, GST-tagged; arrays performed twice, n of 4
Method in brief: as §1

[25] = tested on: PHF2; details: PHF2, GST-tagged; arrays performed twice, n of 4
Method in brief: as §1

[26] = tested on: PHF8; details: PHF8, GST-tagged; arrays performed twice, n of 4
Method in brief: as §1

[27] = tested on: PHRF1 (RP); details: PHRF1 (RP), GST-tagged; arrays performed twice, n of 4
Method in brief: as §1

[28] = tested on: RAG2; details: RAG2, GST-tagged; arrays performed twice, n of 4
Method in brief: as §1

[29] = tested on: SP140L; details: SP140L, GST-tagged; arrays performed twice, n of 4
Method in brief: as §1

[30] = tested on: TAF3; details: TAF3, GST-tagged; arrays performed twice, n of 4
Method in brief: as §1

[31] = tested on: TRIM66 (PB); details: TRIM66 (PB), GST-tagged; arrays performed twice, n of 4
Method in brief: as §1

| Array Heatmap value (peptide array binding signal) [1] | Array Heatmap value (peptide array binding signal) [2] | Array Heatmap value (peptide array binding signal) [3] | Array Heatmap value (peptide array binding signal) [4] | Array Heatmap value (peptide array binding signal) [5] | Array Heatmap value (peptide array binding signal) [6] | Array Heatmap value (peptide array binding signal) [7] | Array Heatmap value (peptide array binding signal) [8] | Array Heatmap value (peptide array binding signal) [9] | Array Heatmap value (peptide array binding signal) [10] | Array Heatmap value (peptide array binding signal) [11] | Array Heatmap value (peptide array binding signal) [12] | Array Heatmap value (peptide array binding signal) [13] | Array Heatmap value (peptide array binding signal) [14] | Array Heatmap value (peptide array binding signal) [15] | Array Heatmap value (peptide array binding signal) [16] | Array Heatmap value (peptide array binding signal) [17] | Array Heatmap value (peptide array binding signal) [18] | Array Heatmap value (peptide array binding signal) [19] | Array Heatmap value (peptide array binding signal) [20] | Substance | further results |
| --- | --- | --- | --- | --- | --- | --- | --- | --- | --- | --- | --- | --- | --- | --- | --- | --- | --- | --- | --- | --- | --- |
| 0.4899 | 0.5322 | 0.4151 | 0.6736 | 0.8019 | 0.6612 | 0.819 | 0.7332 | 0.6463 | 0.6555 | 0.5657 | 0.5489 | 0.4437 | 0.5731 | 0.5728 | 0.5161 | 0.7243 | 0.4928 | 0.3972 | 0.6075 | H3K27acK36me1 (21-44): H3 21-44 | Array Heatmap value (peptide array binding signal) [21]: 0.41; Array Heatmap value (peptide array binding signal) [22]: 0.7148; Array Heatmap value (peptide array binding signal) [23]: 0.5223; Array Heatmap value (peptide array binding signal) [24]: 0.594; Array Heatmap value (peptide array binding signal) [25]: 0.6877; Array Heatmap value (peptide array binding signal) [26]: 0.4123; Array Heatmap value (peptide array binding signal) [27]: 0.5526; Array Heatmap value (peptide array binding signal) [28]: 0.2901; Array Heatmap value (peptide array binding signal) [29]: 0.402; Array Heatmap value (peptide array binding signal) [30]: 0.3058; Array Heatmap value (peptide array binding signal) [31]: 0.6284 |
| 0.4428 and 0.4192 | 0.4609 and 0.4258 | 0.3426 and 0.3388 | 0.5418 and 0.5498 | 0.7409 and 0.7549 | 0.5507 and 0.5149 | 0.6948 and 0.6464 | 0.7163 and 0.602 | 0.5489 and 0.5171 | 0.6056 and 0.5874 | 0.4824 and 0.4746 | 0.4678 and 0.4306 | 0.3615 and 0.3253 | 0.4885 and 0.4721 | 0.4783 and 0.4109 | 0.4461 and 0.4626 | 0.6449 and 0.6364 | 0.4476 and 0.4512 | 0.3413 and 0.3447 | 0.5387 and 0.5129 | H3K27acK36me2 (21-44): H3 21-44 | Array Heatmap value (peptide array binding signal) [21]: 0.3508 and 0.3632; Array Heatmap value (peptide array binding signal) [22]: 0.6217 and 0.5883; Array Heatmap value (peptide array binding signal) [23]: 0.4478 and 0.464; Array Heatmap value (peptide array binding signal) [24]: 0.5178 and 0.5191; Array Heatmap value (peptide array binding signal) [25]: 0.5335 and 0.4712; Array Heatmap value (peptide array binding signal) [26]: 0.3474 and 0.3417; Array Heatmap value (peptide array binding signal) [27]: 0.4704 and 0.4395; Array Heatmap value (peptide array binding signal) [28]: 0.238 and 0.2335; Array Heatmap value (peptide array binding signal) [29]: 0.3702 and 0.357; Array Heatmap value (peptide array binding signal) [30]: 0.2617 and 0.2453; Array Heatmap value (peptide array binding signal) [31]: 0.5511 and 0.5888 |
| 0.4538 | 0.4745 | 0.3596 | 0.5911 | 0.8362 | 0.5645 | 0.7412 | 0.7036 | 0.5601 | 0.6078 | 0.4959 | 0.4623 | 0.3615 | 0.4961 | 0.4894 | 0.4289 | 0.6899 | 0.4828 | 0.3751 | 0.5602 | H3K36ac (21-44): H3 21-44 | Array Heatmap value (peptide array binding signal) [21]: 0.3556; Array Heatmap value (peptide array binding signal) [22]: 0.6346; Array Heatmap value (peptide array binding signal) [23]: 0.4731; Array Heatmap value (peptide array binding signal) [24]: 0.5388; Array Heatmap value (peptide array binding signal) [25]: 0.5459; Array Heatmap value (peptide array binding signal) [26]: 0.3497; Array Heatmap value (peptide array binding signal) [27]: 0.4519; Array Heatmap value (peptide array binding signal) [28]: 0.2439; Array Heatmap value (peptide array binding signal) [29]: 0.3554; Array Heatmap value (peptide array binding signal) [30]: 0.2714; Array Heatmap value (peptide array binding signal) [31]: 0.6317 |
| 0.395 | 0.3935 | 0.3001 | 0.5004 | 0.7445 | 0.4582 | 0.5926 | 0.6617 | 0.4725 | 0.5895 | 0.3958 | 0.3966 | 0.2888 | 0.4185 | 0.422 | 0.3829 | 0.6354 | 0.3806 | 0.3181 | 0.4918 | H3K36me1 (21-44): H3 21-44 | Array Heatmap value (peptide array binding signal) [21]: 0.3108; Array Heatmap value (peptide array binding signal) [22]: 0.5223; Array Heatmap value (peptide array binding signal) [23]: 0.4184; Array Heatmap value (peptide array binding signal) [24]: 0.4625; Array Heatmap value (peptide array binding signal) [25]: 0.4036; Array Heatmap value (peptide array binding signal) [26]: 0.3097; Array Heatmap value (peptide array binding signal) [27]: 0.3839; Array Heatmap value (peptide array binding signal) [28]: 0.2054; Array Heatmap value (peptide array binding signal) [29]: 0.3238; Array Heatmap value (peptide array binding signal) [30]: 0.2241; Array Heatmap value (peptide array binding signal) [31]: 0.5169 |
